Measurements from BindingDB's records for doi:10.1016/j.bmcl.2007.02.075 (Bayer Research Center, 2007).

biological target: RAC-alpha serine/threonine-protein kinase (Homo sapiens, UniProt P31749); experiment: Inhibition of pAkt
Sequence (P31749 whole entry): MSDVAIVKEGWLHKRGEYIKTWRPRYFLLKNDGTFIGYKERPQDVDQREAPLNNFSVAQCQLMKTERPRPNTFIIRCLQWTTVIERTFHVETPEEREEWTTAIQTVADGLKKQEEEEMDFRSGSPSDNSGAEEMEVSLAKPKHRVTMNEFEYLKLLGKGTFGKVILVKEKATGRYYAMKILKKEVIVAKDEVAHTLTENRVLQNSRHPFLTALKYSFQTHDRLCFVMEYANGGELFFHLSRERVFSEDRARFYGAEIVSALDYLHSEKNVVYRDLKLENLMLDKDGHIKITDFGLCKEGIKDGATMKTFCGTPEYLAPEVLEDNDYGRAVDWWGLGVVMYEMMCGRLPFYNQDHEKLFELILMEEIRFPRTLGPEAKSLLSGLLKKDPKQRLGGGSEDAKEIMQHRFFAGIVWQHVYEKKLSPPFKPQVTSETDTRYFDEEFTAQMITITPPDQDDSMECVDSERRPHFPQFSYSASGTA

IC50 [nM] | Structure (SMILES)
81 | CCNC(=O)Nc1ccc(CNc2ncsc2C(=O)Nc2ccc3c(c2)OC(F)(F)O3)cn1 [1-(5-((5-((2,2-difluorobenzo[d][1,3]dioxol-5-yl)carbamoyl)thiazol-4-ylamino)methyl)pyridin-2-yl)-3-ethylurea]
15 | CNC(=O)Nc1ccc(CNc2c(C(=O)Nc3ccc(SC(F)(F)F)cc3)cnn2C)cn1 [1-methyl-3-(5-((1-methyl-4-((4-(trifluoromethylthio)phenyl)carbamoyl)-1H-pyrazol-5-ylamino)methyl)pyridin-2-yl)urea]
24 | CNC(=O)Nc1ccc(CNc2ncsc2C(=O)Nc2ccc3c(c2)OC(F)(F)O3)cn1 [1-(5-((5-((2,2-difluorobenzo[d][1,3]dioxol-5-yl)carbamoyl)thiazol-4-ylamino)methyl)pyridin-2-yl)-3-methylurea]
